What was measured:
Details in all cases: 72 h
Caco-2 [1] = experiment: cell viability relative to DMSO; higher = less toxic
Calu-3 [2] = experiment: as above
HepG2 [3] = experiment: as above
U2OS [4] = experiment: as above
Vero E6 [5] = experiment: as above
Caco-2 [6] = experiment: relative viability EC50 (midpoint between 100% and the lowest measured viability); higher = less toxic
Calu-3 [7] = experiment: as above
HepG2 [8] = experiment: as above
U2OS [9] = experiment: as above
Vero E6 [10] = experiment: as above
Caco-2 [11] = experiment: drug sensitivity score (DSS) for viability; higher = more toxic; extreme values may be limits of the assay
Calu-3 [12] = experiment: as above
HepG2 [13] = experiment: as above
U2OS [14] = experiment: as above
Vero E6 [15] = experiment: as above

SMILES | cell viability (Caco-2 [1]; 1 nM) | cell viability (Caco-2 [1]; 10 nM) | cell viability (Caco-2 [1]; 100 nM) | cell viability (Caco-2 [1]; 1000 nM) | cell viability (Caco-2 [1]; 10000 nM) | cell viability (Calu-3 [2]; 1 nM) | cell viability (Calu-3 [2]; 10 nM) | cell viability (Calu-3 [2]; 100 nM) | cell viability (Calu-3 [2]; 1000 nM) | cell viability (Calu-3 [2]; 10000 nM) | cell viability (HepG2 [3]; 1 nM) | cell viability (HepG2 [3]; 10 nM) | cell viability (HepG2 [3]; 100 nM) | cell viability (HepG2 [3]; 1000 nM) | cell viability (HepG2 [3]; 10000 nM) | cell viability (U2OS [4]; 1 nM) | cell viability (U2OS [4]; 10 nM) | cell viability (U2OS [4]; 100 nM) | cell viability (U2OS [4]; 1000 nM) | cell viability (U2OS [4]; 10000 nM) | cell viability (Vero E6 [5]; 1 nM) | cell viability (Vero E6 [5]; 10 nM) | cell viability (Vero E6 [5]; 100 nM) | cell viability (Vero E6 [5]; 1000 nM) | cell viability (Vero E6 [5]; 10000 nM) | relative viability EC50 (Caco-2 [6]) | relative viability EC50 (Calu-3 [7]) | relative viability EC50 (HepG2 [8]) | relative viability EC50 (U2OS [9]) | relative viability EC50 (Vero E6 [10]) | drug sensitivity score (Caco-2 [11]) | drug sensitivity score (Calu-3 [12]) | drug sensitivity score (HepG2 [13]) | drug sensitivity score (U2OS [14]) | drug sensitivity score (Vero E6 [15])
CCN1C(=O)CNc2ncc(-c3ccc(-c4nc[nH]n4)nc3C)nc21 [CC-115] | 94.7% | 96.4% | 89.2% | 39.8% | 20.5% | 106% | 92% | 91.9% | 37.3% | 21.6% | 108% | 102% | 105% | 57.2% | 25.1% | 100% | 102% | 99.6% | 59.4% | 6.6% | 108% | 103% | 103% | 64.4% | 24.8% | 0.411 µM | 0.4 µM | 0.894 µM | 1.11 µM | 1.04 µM | 12.7 | 12.8 | 9.3 | 10.5 | 8.7
CN[C@@H](C)C(=O)N[C@H](C(=O)N1CCC[C@H]1C(=O)Nc1sc(-c2ncco2)nc1-c1ccccc1)C1CCCCC1 [CUDC-427] | 98.1% | 101% | 98.5% | 109% | 99.7% | 96.6% | 107% | 86.5% | 102% | 85.6% | 111% | 91.5% | 96.3% | 90% | 95.2% | 98% | 99.9% | 99.2% | 108% | 92.7% | 94.2% | 96.6% | 105% | 105% | 111% | > 10 µM | > 10 µM | > 10 µM | > 10 µM | > 10 µM | 0 | 0.1 | 0 | 0 | 0
COC(=O)c1ccccc1NC(=O)c1ccc(F)cc1 [EXO-1] | 99.5% | 93% | 100% | 103% | 100% | 97.9% | 98.1% | 99.6% | 95.6% | 96.5% | 95.6% | 99.9% | 91.8% | 94.7% | 111% | 98.7% | 91.8% | 98.3% | 95.7% | 98.8% | 95.2% | 94.6% | 91% | 93.6% | 99.5% | > 10 µM | > 10 µM | > 10 µM | > 10 µM | > 10 µM | 0 | 0 | 0 | 0 | 0
O=C(N[C@@H]1Cc2ccccc2N(C[C@@H](O)CO)C1=O)c1cc2cc(Cl)sc2[nH]1 [GPi-688] | 101% | 98% | 96.9% | 94.2% | 92.9% | 102% | 99.3% | 99.9% | 94.1% | 87.8% | 96% | 104% | 98.1% | 104% | 100% | 98.4% | 102% | 95.2% | 96.8% | 94.7% | 99.9% | 102% | 104% | 100% | 90.5% | > 10 µM | > 10 µM | > 10 µM | > 10 µM | > 10 µM | 0 | 0.3 | 0 | 0 | 0
